Earlier results on 1 molecule are cited in US6713504B2, “Antifungal molecule 2-(3,4-dimethyl-2,5-dihydro-1H-pyrrol-2-yl)-1-methylethyl pentanoate” (Council of Scientific & Industrial Research, priority 2002, dated 2004).

Structures are written as SMILES.

The conditions of this series: amphotericin B and its liposomal derivatives; reported by Zager 2000; cited from earlier work.

On to `C[C@@H]1[C@H](O)[C@@H](C)/C=C/C=C/C=C/C=C/C=C/C=C/C=C/[C@H](O[C@@H]2O[C@H](C)[C@@H](O)[C@H](N)[C@@H]2O)C[C@@H]2O[C@](O)(C[C@@H](O)C[C@@H](O)[C@H](O)CC[C@@H](O)C[C@@H](O)CC(=O)O[C@H]1C)C[C@H](O)[C@H]2C(=O)O` [amphotericin B], for which the CT50 was 4.0 to 64.0 µg/mL.
